Test results published in ChEMBL document CHEMBL3507680, “University of Dundee, Gates Library screen for HepG2 cell viability”.

Experiment: Human HepG2 cell viability assay in 384 well format
Type: toxicity, cell-based
Parameters: dose 125 nL, time 70.5 hour; cytotoxicity at 70.5 h: concentration not given beside the values
Conditions: HepG2 cells, read-out: Inhibition

Compound	cytotoxicity at 70.5 h [%]
O=C(NCc1ccc2c(c1)CCCO2)c1cn2c(n1)CNCC2	5.37
N#CC(Sc1nnnn1C1CCOCC1)C1CCCCC1 (stereo not drawn)	-3.62
CCn1nc(C(C)C)cc1C(=O)N1CCOc2ccc(OC)cc21	-5.2
Cc1ccc(CN2CCc3ncnc(OC(C)C)c3CC2)s1	-6.82
CCc1c(C)nc2cc(C3CCN(Cc4ccc(F)cc4)C3)nn2c1O (stereo not drawn)	-5.42
CNC(C)Cc1ccccc1Sc1ccc(O)cc1 (stereo not drawn)	-8.32
CC(C)N1CCCN(c2nc(-c3cccnc3)nc3c2cnn3C)CC1	36.6
CN1CCN(C2CCN(Cc3noc(C(C)(C)C)n3)CC2)C1=O	9.12
CCc1ccc(CC)c(NCC(=O)N2CCCC(NC(C)=O)C2)c1 (stereo not drawn)	-6.55
O=C(Nc1ccccc1)c1ccc2c(c1)C1(CCCCC1)CN2	-2.11
O=C(c1cncc(Br)c1)N1CCCc2ccc(F)cc21	-5.54
CC(=O)Nc1ccc(CN2C[C@H]3CC[C@@H]2CN(c2ncccn2)C3)cc1	-4.04
O=C(c1ccnc(-n2ccnc2)c1)N1CCCC(n2cccn2)C1 (stereo not drawn)	-2.44
Cc1cc(N2CCCC(c3nccnc3N(C)C)C2)ncn1 (stereo not drawn)	-2.83
c1cc(-c2ccc(CN3CCCC4(CCNC4)C3)s2)[nH]n1 (stereo not drawn)	1.71
CCc1nc(C2CCCN2C(=O)Cc2cccs2)no1 (stereo not drawn)	-8.42
Cc1cccc(OCCN2CCCC(c3cc(C(N)=O)[nH]n3)C2)c1 (stereo not drawn)	-7.94
CN1C(=O)C2(CCN(CC3CCC3)C2)c2ccccc21 (stereo not drawn)	9.83
COc1ccc2nnc(CCCC(=O)Nc3nc4c(s3)CCC4)n2n1	-17.4
CC(C)(C)n1cc(C(=O)N2CCN(Cc3ccco3)CC2)cn1	-8.01
COc1cc(OC)cc(C2CC(=O)Nc3c2nc2n3CCCC2)c1 (stereo not drawn)	-3.11
CCOc1cc2c(cc1CN1CCC3(CCCNC3=O)C1)CCC2 (stereo not drawn)	30
COc1cccc2c1OCC(NCc1cnn(-c3ccccc3)c1)C2 (stereo not drawn)	14.4

Compound	cytotoxicity at 70.5 h [%]
COc1ccc(OCC(=O)NS(=O)(=O)c2cc(F)ccc2F)cc1	20.8
Cn1ccc2ccnc(CC3CN(C(=O)c4cscn4)C3)c21	-2.15
COc1ccnc(N2CCN(Cc3ncc(-c4ccccc4)o3)CC2)n1	4.14
CCN(C)c1ncnc2c1CCN(Cc1csc(C)n1)CC2	-12.4
O=C(CN1CCCNC1=O)Nc1ccccc1SC(F)(F)F	21.5
Cc1cc(-c2cncnc2)ccc1OCC(N)=O	13.6
Cc1cc(CN2CC[C@H]3C[C@@H](C)O[C@@H]3C2)no1	-7.88
COc1cc(C(=O)N2CCC(Nc3cccnc3)CC2)ccc1C	6.09
Cc1ccc(-c2csc(N)c2C#N)c(C)c1	-15.8
OC[C@@H]1[C@H]2CN(c3ccccn3)CCN2C[C@H]1c1ccccc1	-1.78
Fc1ccc(N2CCC3(CC2)CC(OCc2cccnc2)CO3)cc1 (stereo not drawn)	0.624
CSc1cc2c(cc1NC(=O)NCC(C)(C)C(N)=O)OCCO2	-1.42
Cc1ncsc1CN1C[C@H]2CC[C@@H]1CN(Cc1ccccc1)C2	30
NC(=O)c1cc2c(nc1Oc1cccc(CN3CCCC3)c1F)CCC2	-13.8
O=C(O)c1ccc(N2CCC(Cc3ccccc3)CC2)nn1	-1.14
CCCOc1ccccc1CN[C@@H]1CCC[C@H]1Cc1cc(C)no1	23.6
CC(C)N(C)S(=O)(=O)N1CCCC1C(=O)N1CCSCC1 (stereo not drawn)	-0.523
Clc1cc(Cl)cc(OCCN2CCC(n3cncn3)CC2)c1	-0.108
Cc1nccn1CCCC(=O)N1CCC(Nc2cccnn2)CC1	5.36
COCC(=O)N1CCCC1c1cc(N2CCN(C(C)=O)CC2)cc(C)n1 (stereo not drawn)	22.7
CCN(CC)S(=O)(=O)c1cccc(C(=O)N(C)Cc2ccsc2)c1	14.5
Cc1cc(NC(=O)CN2CCCC2c2noc(C(C)C)n2)on1 (stereo not drawn)	-14.1
O=C(N1CCCC(n2cncn2)C1)C1(c2ccc(Cl)cc2)CCC1 (stereo not drawn)	-7.28

Compound	cytotoxicity at 70.5 h [%]
O=C(c1c[nH]c(=O)c(Cl)c1)N1C[C@@H]2CC[C@H](C1)N(Cc1ccccc1)C2	-1.59
COc1ccc(CN(C)Cn2cc(C)n(-c3cc(C)on3)c2=O)cc1	-12.5
c1ccc(Cn2ccnc2CN2CCCC2c2noc(C3CC3)n2)cc1 (stereo not drawn)	8.17
COc1cc(C(=O)NCc2cc(N3CCOCC3)ncn2)ccn1	20.4
Cc1cnn(CCCNCc2csc(COc3ccccc3)n2)c1	-3.68
CSCCNc1ccc(C(=O)N(C)Cc2ccc3ccccc3n2)cn1	-12.8
Cc1nc(C(=O)Nc2cccnc2)c(C(C)C)s1	-6.88
CN1CCC(N(Cc2ccccc2)C(=O)c2ccn3ccnc3c2)CC1	-2.58
O=C(O)c1ccn(-c2ccc(NC(=O)c3ccccc3Cl)cc2)n1	11.9
Cc1nnsc1CN(C)C(=O)CCn1cnc2ccccc21	-9.98
CCc1ncc(C(=O)NCCNC(=O)Cc2ccc(F)cc2)s1	-11.7
Cc1cn[nH]c1C1COCCN1C(=O)c1ccc2[nH]nnc2c1 (stereo not drawn)	-4.19
O=C(NC1(c2nc(C3CC3)no2)CCCCC1)c1ccncc1	5.56
CCC(=O)N1CC[C@H](O)[C@@H]1Cc1ccccc1	-9.02
COc1ccc(-c2cn[nH]c2)cc1CNC1CCCC1	-19.5
CN1C(=O)CO[C@H](c2ccc(NC(=O)Nc3ccccc3)cc2)[C@H]1CO	-7.02
CC(NC1CCSCC1)c1ccccc1-n1cccn1 (stereo not drawn)	-11.7
CN(c1ccncn1)C1CC2(CCN(C(=O)c3ccsc3)C2)C1 (stereo not drawn)	-28.9
Cc1ccc(-c2nc(CSCCC(=O)NC(N)=O)co2)cc1	-11.4
O=c1n(CCNCc2ccc(-c3ccccc3)cc2)nc2ccccn12	-8.68
O=S(=O)(CCCNCCn1cccn1)c1ccccc1	-14.5
Cc1cccc(CN2C[C@@H]3COC[C@H](NS(C)(=O)=O)[C@@H]3C2)n1	-15.5
O=C1CCCCN1CCCC(=O)N1CCC2(CC1)[C@H](O)C[C@@H]2O	-4.17

Compound	cytotoxicity at 70.5 h [%]
O=C(NCc1ccccn1)NCc1ccc(Cl)s1	20.5
CNc1cccc(C2CCCN(Cc3ncc[nH]3)C2)n1 (stereo not drawn)	-2.87
c1cnc(NCc2noc3c2CN(c2cnccn2)CC3)nc1	-3.45
CC(=O)N1CC2(CCN(c3ccc4ccccc4n3)CC2)CC1C(=O)O (stereo not drawn)	4.97
O=C(c1ccoc1)N1CCOCC2(CCN(Cc3cccs3)C2)C1 (stereo not drawn)	-12.4
O=C(NC[C@]12COC[C@H]1CN(Cc1cccnc1)C2)C1CCC1	-4.65
COc1ccccc1OCC(=O)Nc1ncccc1OC(F)F	-7.67
O=C(NCC1CC2(CO1)CN(Cc1cccs1)C2)C1CCC1 (stereo not drawn)	19.9
CNC(=O)C1CCCN(C(=O)c2cncs2)C1 (stereo not drawn)	-9.62
Cc1ccc(C(C)NCc2c(C(C)C)nn(C)c2N2CCOCC2)o1 (stereo not drawn)	-5.88
CCCOc1cc(C)ccc1NC(=O)NCCC(=O)N(C)C	-2.29
OC(CN1CCC(c2ccn[nH]2)CC1)c1cccc(C(F)(F)F)c1 (stereo not drawn)	-7.35
CC(=O)N1CCCN(C(=O)c2ccn(-c3cccc(Cl)c3)n2)CC1	-26.5
Cc1cccc2c1OCCCC2NCc1nnc2n1CCCCC2 (stereo not drawn)	-7.8
CC(C)(C)c1cc(NC(=O)CN2CCCCC2Cn2cncn2)on1 (stereo not drawn)	-5.88
Cc1cnn(CCCn2c(C)cc(C(F)(F)F)cc2=O)c1	-9.21
O=C1N(CCCc2ccccc2)CCCC1(O)CNCC1CCCCC1 (stereo not drawn)	6.76
Cn1cc(S(=O)(=O)N2CCC(OCCCc3ccccc3)C2)cn1 (stereo not drawn)	21.6
O=C(Cn1cccn1)NCC(c1cccs1)N1CCCC1 (stereo not drawn)	-11.9
O=C(c1ccc2c(c1)CCC2)N1CCC(c2n[nH]c(C3CC3)n2)CC1	-7.78
CC(=O)N1CCCC(Cc2cnc(-n3ccnc3)cn2)C1 (stereo not drawn)	-5.34
Cc1nnc(CN2CCN(C(C)c3nc(C4CC4)no3)CC2)o1 (stereo not drawn)	-1.41
Cc1ccc(-c2n[nH]cc2CNCC2CCS(=O)(=O)C2)o1 (stereo not drawn)	11.2

Compound	cytotoxicity at 70.5 h [%]
Cc1noc(C)c1C(=O)N(C)C(C)c1ccc(S(C)(=O)=O)cc1 (stereo not drawn)	-20.5
Cc1ccc(NC(=O)NC(C)(C)c2noc(C)n2)cc1	7.68
O=S(=O)(c1ccc(-c2nc3c([nH]2)CCNC3)cc1)N1CCCC1	-11.8
CCn1ncc2c1C(COC)N(C(=O)c1cccs1)CC2 (stereo not drawn)	0.803
CN1CCC(c2cccc(-c3cccc(C(=O)O)c3)n2)CC1	-8.16
c1cnc(N2CCc3onc(CN4CCCC4)c3C2)cn1	6.11
CNC(=O)N1CC[C@@H]2CN(Cc3cccc(OC)c3)S(=O)(=O)[C@@H]2CC1	-11.1
CCOc1ccc(Cl)c(C(=O)N2CCN(C(=O)c3ccoc3C)CC2)n1	-1.97
O=C(c1c[nH]cn1)N1CCCn2c(nnc2Cn2cccc2)C1	-1.3
Cc1nnc(CN(C)CC2(O)CCCN(CCC3CCCCC3)C2=O)o1 (stereo not drawn)	2.51
CC1CCN(C(=O)[C@@H]2C[C@H]3OCC[C@H]3N(Cc3ccoc3)C2)CC1	-2.6
CC(=O)N1Cc2ccccc2C[C@H]1C(=O)Nc1ccccn1	-12
Cc1nc(COc2ccc(OC(C)C(N)=O)cc2)oc1C (stereo not drawn)	-0.152
O=C(NCc1sc2ccccc2c1Cl)c1cc2n(n1)CCNC2	18.3
CCN(CC)CC1CN(Cc2cccc(C#N)c2)Cc2nccn2C1 (stereo not drawn)	5.06
N#Cc1cccc(S(=O)(=O)N(CC2CCC2)c2cn[nH]c2)c1	-8.03
Cc1ccc(O)c(CN2CCCCC2CCN2CCOCC2)c1 (stereo not drawn)	-7.89
CCN1CCC2(CC1)CC(NC(=O)NC)c1cc(C)ccc12 (stereo not drawn)	-6.74
CC(C)(C)C(=O)N1CCC(c2nc(O)cc(-c3ccncc3)n2)CC1	-1.05
CC1CCCN(C(=O)c2ccc(N(C)Cc3cnn(C)c3)nc2)C1 (stereo not drawn)	20.1
O=C(c1ccc2c(c1)COC2)N1CCC(Nc2cccnn2)CC1	-1.47
